Assay results: patent US9107411B2, “Indolecarboxamides and benzimidazolecarboxamides as insecticides and acaricides” (BAYER INTELLECTUAL PROPERTY GMBH, priority 2011, dated 2015)
Read-outs that look alike come from different tables or passages of the source.

Assays:
[1] = system: Myzus persicae; assay: Myzus test (MYZUPE spray treatment); type: in vivo; settings: Chinese cabbage leaf discs, after 6 days
Description: Myzus Test (MYZUPE Spray Treatment) Solvent: 78 parts by weight of acetone • • 1.5 parts by weight of dimethylformamide Emulsifier: 0.5 part by weight of alkylaryl polyglycol ether To produce an appropriate active ingredient formulation, 1 part by weight of active ingredient is mixed with the stated amounts of solvent and emulsifier, and the concentrate is diluted with emulsifier-containing water to the desired concentration. Leaf discs of Chinese cabbage (Brassica pekinensis) infested by all stages of the green peach aphid (Myzus persicae) are sprayed with an active ingredient formulation of the desired concentration. After 6 days, the efficacy in % is determined. 100% means that all of the aphids have been killed; 0% means that none of the aphids have been killed.

[2] = system: Spodoptera frugiperda; assay: Spodoptera frugiperda test (SPODFR spray treatment); type: in vivo; settings: maize leaf discs, after 7 days
Summary of the method: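 Maize leaf discs sprayed with active ingredient formulated in acetone/dimethylformamide with emulsifier, diluted in emulsifier-containing water to the desired concentration. After drying, discs were populated with armyworm caterpillars. Efficacy (%) scored after 7 days: 100% all caterpillars killed, 0% none killed.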

[3] = logP (HPLC-MS); type: physicochemical
[4] = system: Phaedon cochleariae; assay: Phaedon test (PHAECO spray treatment); type: in vivo; settings: Chinese cabbage leaf discs, after 7 days
Summary of the method: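 Chinese cabbage leaf discs were sprayed with compound in acetone/DMF with emulsifier, diluted in water to the test concentration. After drying, discs were infested with mustard beetle larvae. Efficacy in % was scored after 7 days, where 100% means all larvae were killed and 0% means none.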

[5] = system: Tetranychus urticae; assay: Tetranychus test, OP-resistant (TETRUR spray treatment); type: in vivo; settings: bean leaf discs, after 6 days
Summary of the method: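 Bean leaf discs infested with all stages of OP-resistant T. urticae sprayed with compound formulated in acetone/DMF plus alkylaryl polyglycol ether emulsifier, diluted in water. Efficacy (% mites killed) scored after 6 days.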

[6] = system: Boophilus microplus; assay: Boophilus microplus test (BOOPMI injection); type: in vivo; settings: application rate 20 μg/animal; injected into the abdomen; after 7 days
Summary of the method: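 Active ingredient dissolved in DMSO (10 mg in 0.5 ml, then diluted to the test concentration) and injected into the abdomen of Boophilus microplus ticks. Ticks kept in dishes in a climate-controlled room for 7 days. Efficacy (%) is based on laying of fertile eggs; 100% means no tick laid fertile eggs.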

[7] = system: Lucilia cuprina larvae; assay: Lucilia cuprina test (LUCICU); type: in vivo; settings: application rate 100 ppm; treated horse meat; after 2 days
Summary of the method: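 About 20 Lucilia cuprina larvae placed on horse meat treated with compound formulation (DMSO concentrate diluted in water). Kill (%) scored after 2 days, 100% meaning all larvae dead.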

[8] = system: adult Musca domestica; assay: Musca domestica test (MUSCDO); type: in vivo; settings: application rate 100 ppm; treated sponge; after 2 days
Description: Musca domestica Test (MUSCDO) Solvent: dimethyl sulphoxide To prepare an appropriate active ingredient formulation, 10 mg of active ingredient are mixed with 0.5 ml of dimethyl sulphoxide and the concentrate is diluted with water to the desired concentration. Vessels containing a sponge treated with the active ingredient formulation of the desired concentration are populated with adult Musca domestica. After 2 days, the kill in % is determined 100% means that all of the flies have been killed; 0% means that none of the flies have been killed.

[9] = system: Ctenocephalides felis; assay: Ctenocephalides felis oral (CTECFE); type: in vivo; settings: application rate 100 ppm in citrated cattle blood; after 2 days
Summary of the method: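 About 20 unfed adult fleas fed through a Parafilm membrane on citrated cattle blood containing the compound at the desired concentration, diluted from a DMSO concentrate. Kill in % was scored after 2 days, where 100% means all fleas dead and 0% none.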

[10] = HPLC, reversed-phase column (C18), 43° C., acidic range pH 2.7, EEC directive 79/831 Annex V.A8, two values = both regioisomers (G = N)
[11] = HPLC, reversed-phase column (C18), acidic range pH 2.7, acetonitrile (0.1% formic acid)/water gradient, 43° C., calibration with unbranched alkan-2-ones

SMILES	efficacy in % ([1]; application rate 100 g/ha)	efficacy in % ([2]; application rate 100 g/ha)	log p [3, 10]	efficacy in % ([4]; application rate 100 g/ha)	efficacy in % ([5]; application rate 100 g/ha)	efficacy in % ([1]; application rate 500 g/ha)	efficacy in % ([2]; application rate 500 g/ha)	chromatographic logP ([3]; HPLC, reversed-phase column (C18), 43° C., acidic range pH 2.7, EEC directive 79/831 Annex V.A8, two values = both regioisomers (G = N), read-out: log p)	chromatographic logP ([3]; HPLC-MS)	pest or weed control at 500 g/ha ([4]; Phaedon cochleariae, foliar, 168 h, application rate 500 g/ha, read-out: efficacy in %)	efficacy in % ([4]; application rate 500 g/ha)	efficacy in % ([5]; application rate 500 g/ha)	efficacy (laying of fertile eggs) [6]	efficacy (kill in %) [7]	log p [3, 11]	efficacy (kill in %) [8]	efficacy (kill in %) [9]
CCn1c(C(=O)NC(c2ccc(F)c(F)c2)C(F)(F)F)cc2cc(C(=O)NC3CC3)c(C)cc21 (centres unmarked) [Compound 295]	90%	100%	3.40	100%	100%	–	–	–	–	–	–	–	–	–	–	–	–
O=C(NC1CC1)c1cc2nc(C(=O)NC(c3cccc(C(F)(F)F)c3)C(F)(F)F)n(C3CC3)c2cc1Cl (centres unmarked) [Compound 312, 6-chloro-N^5,1-dicyclopropyl-N^2-{2,2,2-trifluoro-1-[3-(trifluoromethyl)phenyl]ethyl}-1H-benzimidazole-2,5-dicarboxamide]	100%	–	–	–	–	100%	100%	3.48	3.48	100%	–	–	–	–	–	–	–
CCn1c(C(=O)NC(c2ccc(F)c(F)c2)C(F)(F)F)cc2cc(C(=O)NC3(C#N)CC3)c(Cl)cc21 (centres unmarked) [Compound 315]	90%	100%	3.47	100%	100%	–	–	–	–	–	–	–	–	–	–	–	–
O=C(NC1CC1)c1cc2nc(C(=O)NC(c3ccc(F)c(C(F)(F)F)c3)C(F)(F)F)n(C3CC3)c2cc1Cl (centres unmarked) [Compound 313]	–	–	3.38	–	–	90%	100%	–	–	–	100%	90%	–	–	–	–	–
O=C(NC1CC1)c1cc2nc(C(=O)NC(c3cccc(Br)c3)C(F)(F)F)n(C3CC3)c2cc1Cl (centres unmarked) [Compound 314]	90%	100%	3.43	100%	90%	–	–	–	–	–	–	–	–	–	–	–	–
CCn1c(C(=O)NC(c2cc(Cl)c(Cl)c(Cl)c2)C(F)(F)F)cc2cc(C(=O)NC3(C#N)CC3)c(C)cc21 (centres unmarked) [Compound 289]	–	100%	4.43	100%	100%	100%	–	–	–	–	–	–	–	–	–	–	–
C=CCN(C(=O)c1cc2nc(C(=O)NC(c3ccc(F)c(Cl)c3)C(F)(F)F)n(CC=C)c2cc1Cl)C1CC1 (centres unmarked) [Compound 303]	90%	–	4.75	–	–	–	100%	–	–	–	100%	100%	–	–	–	–	–
C=CCn1c(C(=O)NC(c2ccc(F)c(C(F)(F)F)c2)C(F)(F)F)nc2cc(C(=O)NC3CC3)c(Cl)cc21 (centres unmarked) [Compound 281]	100%	–	3.79	–	–	90%	100%	–	–	–	100%	100%	–	–	–	–	–
CCn1c(C(=O)NC(c2ccc(Cl)c(Cl)c2)C(F)(F)F)cc2cc(C(=O)NC3(C#N)CC3)c(Cl)cc21 (centres unmarked) [Compound 316]	90%	100%	4.06	100%	100%	–	–	–	–	–	–	–	–	–	–	–	–
N#CCn1c(C(=O)NC(c2ccc(F)c(C(F)(F)F)c2)C(F)(F)F)nc2cc(C(=O)NC3CC3)c(Cl)cc21 (centres unmarked) [Compound 301]	–	–	–	–	–	90%	100%	–	–	–	100%	90%	–	–	–	–	–
CCn1c(C(=O)NC(c2cc(Cl)cc(Cl)c2)C(F)(F)F)cc2cc(C(=O)NC3CC3)c(Cl)cc21 (centres unmarked) [Compound 13]	–	–	–	–	–	–	100%	–	–	–	100%	80%	100%	100%	4.27	100%	100%
C#CCn1c(C(=O)NC(c2ccc(F)c(C(F)(F)F)c2)C(F)(F)F)cc2cc(C(=O)NC3(C#N)CC3)c(Cl)cc21 (centres unmarked) [Compound 61]	–	100%	–	100%	100%	–	–	–	–	–	–	–	100%	100%	3.65	100%	100%
CCn1c(C(=O)NC(c2ccc(F)c(Cl)c2)C(F)(F)F)cc2cc(C(=O)NC3(C#N)CC3)c(Cl)cc21 (centres unmarked) [Compound 20]	–	100%	–	100%	80%	–	–	–	–	–	–	–	100%	100%	3.79	100%	100%
CCn1c(C(=O)NC(c2cc(Cl)c(Cl)c(Cl)c2)C(F)(F)F)cc2cc(C(=O)NC3(C#N)CC3)c(Cl)cc21 (centres unmarked) [Compound 275]	–	100%	–	100%	100%	–	–	–	–	–	–	–	100%	100%	4.43	100%	100%
CCn1c(C(=O)NC(c2ccc(F)c(C(F)(F)F)c2)C(F)(F)F)cc2cc(C(=O)NC3CC3)c(Cl)cc21 (centres unmarked) [Compound 3]	–	100%	–	100%	–	–	–	–	–	–	–	100%	100%	100%	3.93	100%	100%
CCn1c(C(=O)NC(c2ccc(F)c(Br)c2)C(F)(F)F)cc2cc(C(=O)NC3(C#N)CC3)c(Cl)cc21 (centres unmarked) [Compound 42]	–	100%	–	100%	100%	–	–	–	–	–	–	–	100%	100%	3.76	100%	100%
CCn1c(C(=O)NC(c2cccc(C(F)(F)F)c2)C(F)(F)F)cc2cc(C(=O)NC3(C)CC3)c(Cl)cc21 (centres unmarked) [Compound 22]	–	83%	–	100%	80%	–	–	–	–	–	–	–	100%	100%	4.16	100%	100%
